In US20240174690A1, “ANNULATED 2-AMINO-3-CYANO THIOPHENES AND DERIVATIVES FOR THE TREATMENT OF CANCER” (BOEHRINGER INGELHEIM INTERNATIONAL GMBH, priority 2021, published 2024):

Legend:
CYP3A4 = CYP3A4 (Homo sapiens (Human), UniProt P08684); test: Mechanism based inhibition of CYP3A4 assay (MBI 3A4); assay type: in vitro ADME; conditions: hydroxy-midazolam formation after 30 min vs 0 min preincubation, 25 uM, human liver microsomes
Procedure, shortened: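 Human CYP3A4 activity after 30 min vs 0 min preincubation with test compound; incubate then diluted 1:10 and midazolam added for a 15 min main incubation. Quenched with acetonitrile; hydroxy-midazolam quantified by LC/MS-MS and expressed as % of the 0 min preincubation formation.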

GP2D cells = test: GP2D proliferation assay (120 h) (colorectal cancer, G12D); assay type: cell-based
Procedure: GP2D Proliferation Assay (120 h) (Colorectal Cancer, G12D)
GP2D cells (ATCC No. CRL-5807) are dispensed into white 384-well plates, flat and white bottom (Perkin Elmer, 6007680) at a density of 500 cells per well in 40 μl DMEM (Sigma, D6429)+1×GlutaMAX (Gibco, 35050038)+10% FCS (fetal calf serum). […] Compounds (10 mM stock in DMSO) are added at logarithmic dose series using the HP Digital Dispenser D300 (Tecan), including DMSO controls and normalizing for added DMSO. For the TO time point measurement, untreated cells are analyzed at the time of compound addition. Plates are incubated for 120 h, and cell viability is measured using CellTiter-Glo luminescent cell viability reagent (Promega product code G7570). Viability (stated as percent of control) is defined as relative luminescence units RLU of each well divided by the RLU of cells in DMSO controls. IC50 values are determined from viability measurements by non-linear regression using a four parameter model.

KRAS (WT)::SOS1 = KRAS (WT)::SOS1 (Homo sapiens (Human), UniProt P01116, C118S); test: KRAS::SOS1 AlphaScreen binding assay, KRAS WT
Chain of KRAS (WT)::SOS1 (P01116 other isoform, or with tags, fused parts or gaps C118S): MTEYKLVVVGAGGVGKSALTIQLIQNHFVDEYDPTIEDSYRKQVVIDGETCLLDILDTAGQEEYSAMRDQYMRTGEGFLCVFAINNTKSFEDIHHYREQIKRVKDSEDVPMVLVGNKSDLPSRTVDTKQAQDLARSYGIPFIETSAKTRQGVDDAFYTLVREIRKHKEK
Excerpt: This assay can be used to examine the potency with which compounds according to the invention binding to (mutated) KRAS inhibit the protein-protein interaction between SOS1 and (mutated) KRAS e.g., KRAS WT, KRAS G12C, KRAS G12D, KRAS G12V, KRAS G13D. […] Low IC50 values in this assay setting are indicative of strong inhibition of protein-protein interaction between SOS1 and KRAS:
These assays measure the inhibitory effect of compounds on KRAS mutant protein-protein interactions using the Alpha Screen technology by Perkin Elmer.
The following (mutant) enzyme forms of KRAS and interacting proteins are used in these assays at the given concentrations: • KRAS (G12D) 1-169, N-terminal 6His-tag, C-terminal avi-tag (Xtal BioStructures, Inc.); final assay concentration 10 nM and SOS1 564-1049, N-terminal 229 GST-tag, TEV cleavage site (Viva Biotech Ltd); final assay concentration 5 nM; • KRAS (G12C) 1-169, N-terminal 6His-tag for purification, cleaved off, C-terminal avi-tag, biotinylated, mutations: C51S, C80L, C118S (in house); final assay concentration 7.5 nM and SOS1 564-1049, N-terminal 229 GST-tag, TEV cleavage site (Viva Biotech Ltd); final assay concentration 5 nM; • KRAS (G12V) 1-169, N-terminal 6His-tag for purification, cleaved off, C-terminal avi-tag, biotinylated, TEV cleavage site, mutation: C118S, GDP loaded (in house); final assay concentration 10 nM and SOS1 564-1049, N-terminal 229 GST-tag, TEV cleavage site (Viva Biotech Ltd); final assay concentration 10 nM; • KRAS (G13D) 1-169, N-terminal 6His-tag for purification, cleaved off, C-terminal avi-tag, biotinylated, TEV cleavage site, mutation: C118S, GDP loaded (in house); final assay concentration 10 nM and SOS1 564-1049, N-terminal 229 GST-tag, TEV cleavage site (Viva Biotech Ltd); final assay concentration 10 nM; • KRAS (WT) 1-169, N-terminal 6His-tag for purification, cleaved off, C-terminal avi-tag, biotinylated, TEV cleavage site, mutation: C118S, GDP loaded (in house); final assay concentration 10 nM and SOS1 564-1049, N-terminal 229 GST-tag, TEV cleavage site (Viva Biotech Ltd); final assay concentration 10 nM.
Test compounds dissolved in DMSO are dispensed onto assay plates (Proxiplate 384 PLUS, white, PerkinElmer; 6008289) using an Access Labcyte Workstation with the Labcyte Echo 55×. For the chosen highest assay concentration of 100 μM, 150 nL of compound solution are transferred from a 10 mM DMSO compound stock solution. A series of eleven fivefold dilutions per compound are transferred to the assay plate, compound dilutions are tested in duplicates. DMSO are added as backfill to a total volume of 150 nL.
The assays run on a fully automated robotic system in a darkened room below 100 Lux. To 150 nl of compound dilution 10 μl of a mix including KRAS mutant protein, SOS1 (final assay concentrations see above) and GDP nucleotide (Sigma G7127; final assay concentration 10 μM) in assay buffer (1×PBS, 0.1% BSA, 0.05% Tween 20) are added into columns 1-24.
After 30 minutes incubation time 5 μl of Alpha Screen bead mix in assay buffer are added into columns 1-23. Bead mix consists of AlphaLISA Glutathione Acceptor Beads (PerkinElmer, Cat No AL109) and AlphaScreen Streptavidin Donor Beads (PerkinElmer Cat No 6760002) in assay buffer at a final assay concentration of 10 μg/ml each.
Plates are kept at room temperature in a darkened incubator. After an additional 60 minutes incubation time the signal is measured in a PerkinElmer Envision HTS Multilabel Reader using the AlphaScreen specs from PerkinElmer.
Each plate contains up to 16 wells of a negative control depending on the dilution procedure (platewise or serial) (DMSO instead of test compound; with KRAS mutant::SOS1 GDP mix and bead mix; column 23) and 16 wells of a positive control (DMSO instead of test compound; with KRAS mutant::SOS1 GDP mix w/o bead mix; column 24).
As internal control known inhibitors of KRAS mutant::SOS1 interaction can be measured on each compound plate. […]

Chain of CYP3A4 (P08684 whole entry): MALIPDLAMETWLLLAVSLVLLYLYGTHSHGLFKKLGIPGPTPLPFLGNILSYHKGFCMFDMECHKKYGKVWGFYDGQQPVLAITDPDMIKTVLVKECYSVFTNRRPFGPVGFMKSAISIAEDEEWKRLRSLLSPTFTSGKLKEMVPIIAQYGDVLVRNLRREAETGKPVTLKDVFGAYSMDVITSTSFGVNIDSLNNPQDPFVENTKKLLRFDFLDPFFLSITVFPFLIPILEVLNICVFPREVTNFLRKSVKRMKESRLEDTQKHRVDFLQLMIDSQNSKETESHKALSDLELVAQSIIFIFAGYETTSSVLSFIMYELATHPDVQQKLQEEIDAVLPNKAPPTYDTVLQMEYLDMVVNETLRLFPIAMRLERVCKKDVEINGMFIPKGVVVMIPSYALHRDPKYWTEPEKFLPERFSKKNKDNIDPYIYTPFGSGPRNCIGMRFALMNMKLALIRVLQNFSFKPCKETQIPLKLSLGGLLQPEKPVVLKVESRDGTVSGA

C[C@H](Oc1cc(-n2cc(C(=O)N(C)C)nn2)nc(-c2noc3c2CCC[C@@]32CCCc3sc(N)c(C#N)c32)n1)[C@@H]1CCCN1C [II-132]
MBI 3A4 (CYP3A4): 70%

C[C@H](Oc1cc(-c2ccn(C)n2)nc(-c2noc3c2CCC[C@@]32CCCc3sc(N)c(C#N)c32)n1)[C@@H]1C[C@H](F)CN1C [II-144]
IC50 (GP2D cells): > 1000 nM
MBI 3A4 (CYP3A4): 60%

C[C@H](Oc1cc(N2CCNC[C@@]23CCOC3)nc(-c2onc3c2CCC[C@@]32CCCc3sc(N)c(C#N)c32)n1)[C@@H]1CCCN1C [I-13]
MBI 3A4 (CYP3A4): 48%

C[C@H](Oc1cc(-n2cc3c(n2)CNC3)nc(-c2noc3c2CCC[C@@]32CCCc3sc(N)c(C#N)c32)n1)[C@@H]1C[C@@H](F)CN1C [II-154]
IC50 (GP2D cells): 39 nM

C[C@H](Oc1cc(-n2ccc(-c3cn(C4CCOCC4)nn3)n2)nc(-c2noc3c2CCC[C@@]32CCCc3sc(N)c(C#N)c32)n1)[C@@H]1CCCN1C [II-210]
IC50 (KRAS (WT)::SOS1): 7 nM

C[C@H](Oc1cc(-n2cc3c(n2)CN(C)C3)nc(-c2noc3c2CCC[C@@]32CCCc3sc(N)c(C#N)c32)n1)[C@@H]1CCCN1C [II-174]
IC50 (KRAS (WT)::SOS1): 4 nM
IC50 (GP2D cells): 3 nM

CO[C@@H]1C[C@@H]([C@H](C)Oc2cc(N3CCNC4(CC4)C3)nc(-c3noc4c3CCC[C@@]43CCCc4sc(N)c(C#N)c43)n2)N(C)C1 [II-187]
IC50 (GP2D cells): 1 nM

C[C@H](Oc1cc(-n2cnc(C(=O)N(C)C)c2)nc(-c2noc3c2CCC[C@@]32CCCc3sc(N)c(C#N)c32)n1)[C@@H]1CCCN1C [II-126]
MBI 3A4 (CYP3A4): 56%

C[C@H](Oc1cc(-n2cc3c(n2)CNC3)nc(-c2noc3c2CCC[C@@]32CCCc3sc(N)c(C#N)c32)n1)[C@@H]1CCCN1C [II-168]
IC50 (KRAS (WT)::SOS1): 3 nM
IC50 (GP2D cells): 12 nM

C[C@H](Oc1cc(-c2cn(C)nn2)nc(-c2onc3c2CCC[C@@]32CCCc3sc(N)c(C#N)c32)n1)[C@@H]1CCCN1C [I-16]
IC50 (GP2D cells): 673 nM

CC(C)N1CCCN(c2cc(-c3ccn(C)n3)nc(-c3noc4c3CCC[C@@]43CCCc4sc(N)c(C#N)c43)n2)[C@@H](C)C1 [II-170]
MBI 3A4 (CYP3A4): 70%

CC(C)N1CCCN(c2cc(-n3ccnc3)nc(-c3noc4c3CCC[C@@]43CCCc4sc(N)c(C#N)c43)n2)[C@@H](C)C1 [II-169]
IC50 (GP2D cells): 1870 nM
MBI 3A4 (CYP3A4): 66%

CO[C@H]1CCN(C)[C@@H]1[C@H](C)Oc1cc(-n2ccc(C(=O)N[C@@H](C)c3ccccn3)n2)nc(-c2noc3c2CCC[C@@]32CCCc3sc(N)c(C#N)c32)n1 [II-196]
IC50 (KRAS (WT)::SOS1): 6 nM

CCN1CCN(c2cc(O[C@@H](C)[C@@H]3C[C@@H](F)CN3C)nc(-c3noc4c3CCC[C@@]43CCCc4sc(N)c(C#N)c43)n2)CC12CC2 [II-185]
IC50 (GP2D cells): 15 nM

C[C@H](Oc1cc(-n2ccc(C3(O)COC3)n2)nc(-c2noc3c2CCC[C@@]32CCCc3sc(N)c(C#N)c32)n1)[C@@H]1CCCN1C [II-189]
IC50 (KRAS (WT)::SOS1): 4 nM

C[C@H](Oc1cc(-n2cc(-c3cncs3)nn2)nc(-c2noc3c2CCC[C@@]32CCCc3sc(N)c(C#N)c32)n1)[C@@H]1CCCN1C [II-125]
IC50 (KRAS (WT)::SOS1): 9 nM
MBI 3A4 (CYP3A4): 68%

C[C@H](O)Cn1ncc(-c2cc(O[C@@H](C)[C@@H]3CCCN3C)nc(-c3noc4c3CCC[C@@]43CCCc4sc(N)c(C#N)c43)n2)n1 [II-134]
MBI 3A4 (CYP3A4): 76%

C[C@H](Oc1cc(-n2cncc3ccnc2-3)nc(-c2onc3c2CCC[C@@]32CCCc3sc(N)c(C#N)c32)n1)[C@@H]1CCCN1C [I-14]
MBI 3A4 (CYP3A4): 83%

C[C@H](Oc1cc(-n2cncn2)nc(-c2onc3c2CCC[C@@]32CCCc3sc(N)c(C#N)c32)n1)[C@@H]1CCCN1C [I-18]
MBI 3A4 (CYP3A4): 58%

C[C@H](Oc1cc(-n2cc3ccn([C@@H]4CCOC4)c(=O)c3n2)nc(-c2noc3c2CCC[C@@]32CCCc3sc(N)c(C#N)c32)n1)[C@@H]1CCCN1C [II-203]
IC50 (GP2D cells): 137 nM

COCCNC(=O)c1ccn(-c2cc(O[C@@H](C)[C@@H]3CCCN3C)nc(-c3noc4c3CCC[C@@]43CCCc4sc(N)c(C#N)c43)n2)n1 [II-195]
IC50 (KRAS (WT)::SOS1): 3 nM
MBI 3A4 (CYP3A4): 56%

C[C@H](Oc1cc(-n2ccc(C(=O)N[C@H]3CCOC3)n2)nc(-c2noc3c2CCC[C@@]32CCCc3sc(N)c(C#N)c32)n1)[C@@H]1CCCN1C [II-193]
IC50 (KRAS (WT)::SOS1): 6 nM
MBI 3A4 (CYP3A4): 61%

C[C@H](Oc1cc(-c2ccn([C@H]3CCOC3)n2)nc(-c2noc3c2CCC[C@@]32CCCc3sc(N)c(C#N)c32)n1)[C@@H]1CCCN1C [II-127]
MBI 3A4 (CYP3A4): 74%

C[C@H](Oc1cc(N2CCOC2=O)nc(-c2noc3c2CCC[C@@]32CCCc3sc(N)c(C#N)c32)n1)[C@@H]1CCCN1C [II-143]
IC50 (GP2D cells): 59 nM

C[C@H](Oc1cc(N2CCNC[C@]23CCOC3)nc(-c2onc3c2CCC[C@@]32CCCc3sc(N)c(C#N)c32)n1)[C@@H]1CCCN1C [I-12]
IC50 (GP2D cells): 1 nM
MBI 3A4 (CYP3A4): 56%

C[C@H](Oc1cc(-c2ccn(C[C@H]3CCOC3)n2)nc(-c2noc3c2CCC[C@@]32CCCc3sc(N)c(C#N)c32)n1)[C@@H]1CCCN1C [II-129]
MBI 3A4 (CYP3A4): 74%

C[C@H](Oc1cc(-n2cc3ccn(C[C@H]4CCOC4)c(=O)c3n2)nc(-c2noc3c2CCC[C@@]32CCCc3sc(N)c(C#N)c32)n1)[C@@H]1CCCN1C [II-204]
IC50 (GP2D cells): 122 nM

CO[C@@H]1C[C@@H]([C@H](C)Oc2cc(N3CCN(C)C4(COC4)C3)nc(-c3noc4c3CCC[C@@]43CCCc4sc(N)c(C#N)c43)n2)N(C)C1 [II-153]
IC50 (GP2D cells): 14 nM
MBI 3A4 (CYP3A4): 49%

C[C@H](Oc1cc(-c2ccn(Cc3ncco3)n2)nc(-c2noc3c2CCC[C@@]32CCCc3sc(N)c(C#N)c32)n1)[C@@H]1CCCN1C [II-128]
MBI 3A4 (CYP3A4): 60%

C[C@H](Oc1cc(N2C[C@H](C)N(C)[C@@H](C)C2)nc(-c2noc3c2CCC[C@@]32CCCc3sc(N)c(C#N)c32)n1)[C@@H]1CCCN1C [II-173]
IC50 (GP2D cells): 107 nM
MBI 3A4 (CYP3A4): 82%

CO[C@H]1CCN(C)[C@@H]1[C@H](C)Oc1cc(N2CCN(C)C3(CC3)C2)nc(-c2noc3c2CCC[C@@]32CCCc3sc(N)c(C#N)c32)n1 [II-186]
IC50 (GP2D cells): 2 nM
